From patent publication US20250011881A1, “MYC-HSF1 DUAL AMPLIFICATION AS A BIOMARKER FOR CANCER TREATMENT” (The Trustees of Indiana University, priority 2023, published 2025)
Where “and” joins values, the source holds several entries; their conditions need not be identical. Equal entries are not always repeated. Structures can show the parent of a compound that is named as a salt. Where two headings read alike, the source gives them in different places.

Tested on: ovarian cancer cells with (OVCAR8, OVCAR4) or without (OVSAHO, CAOV3) MYC-HSF1 amplification
Assay: Epigenetic inhibitor drug screen, cell viability (Cell Titer Blue)
Assay type: cell-based
[1] = 10 uM, 48 hrs, average relative cell viability (vs 1% DMSO) of non-amplified cells (OVSAHO, CAOV3) minus that of MYC-HSF1 amplified cells (OVCAR8, OVCAR4), positive = greater response in amplified cells, 10 µM
[2] = 10 uM, 48 hrs, average relative cell viability (vs 1% DMSO) of non-amplified cells (OVSAHO, CAOV3) minus that of MYC-HSF1 amplified cells (OVCAR8, OVCAR4), positive = greater response in amplified cells

Row | Structure (SMILES) | Non Amp - AMP (POC) 10 uM [2] [POC] | other results
1 | N[C@@H]1C[C@H]1c1ccccc1 (racemic) [Tranylcypromine (hydrochloride), Tranylcypromine] | – | Non Amp - AMP (POC) 10 uM [1]: 0.7437 POC; Non Amp - AMP (POC) 10 uM (10 uM, 48 hrs, average relative cell viability (vs 1% DMSO) of non-amplified cells (OVSAHO, CAOV3) minus that of MYC-HSF1 amplified cells (OVCAR8, OVCAR4), positive = greater response in amplified cells, listed as Tranylcypromine hydrochloride, 10 µM): −0.6348 POC
2 | BrC1C(Br)C(Br)C(Br)C(Br)C1Br (centres unmarked) [1,2,3,4,5,6-Hexabromocyclohexane] | −13.98 | –
3 | O=C(O)c1ccnc(C(=O)O)c1 [2,4-Pyridinedicarboxylic Acid (hydrate), 2,4-Pyridinedicarboxylic Acid] | – | Non Amp - AMP (POC) 10 uM [1]: 10.85 POC
4 | O=C(O)c1ccnc(C(=O)O)c1 [2,4-Pyridinedicarboxylic Acid] | – | Non Amp - AMP (POC) 10 uM [1]: −1.887 POC
5 | COc1cc2c(cc1O)CC[C@@H]1[C@@H]2CC[C@]2(C)[C@@H](O)CC[C@@H]12 [2-Methoxyestradiol (2-MeOE2), 2-Methoxyestradiol] | 23.41 | –
6 | C#CCC(CCCCCC)C(=O)O (centres unmarked) [2-hexyl-4-Pentynoic Acid] | 2.599 | –
7 | Nc1nccc2c1ncn2[C@@H]1C=C(CO)[C@@H](O)[C@H]1O [3-Deazaneplanocin A (DZNep) hydrochloride] | – | Non Amp - AMP (POC) 10 uM [1]: 8.136 POC
8 | Nc1nccc2c1ncn2[C@@H]1C=C(CO)[C@@H](O)[C@H]1O [3-Deazaneplanocin A] | – | Non Amp - AMP (POC) 10 uM [1]: 28.52 POC
9 | O=c1[nH]cnc2ccccc12 [4-HQN] | −1.37 | –
10 | O=C(CCCCCCC(=O)Nc1ccc(I)cc1)NO [4-iodo-SAHA] | 29.5 | –
11 | Cn1cc(-c2ccc(S(=O)(=O)n3ccc(/C=C/C(=O)Nc4ccccc4N)c3)cc2)cn1 [4SC-202] | 15.57 | –
12 | Cc1cn([C@H]2C[C@H](O)[C@@H](CO)O2)c(=O)nc1N [5-Methyl-2′-deoxycytidine] | −10.37 | –
13 | O=Nc1ccc(O)c2ncccc12 [5-Nitroso-8-quinolinol] | – | Non Amp - AMP (POC) 10 uM [1]: 9.462 POC
14 | Nc1nc2nc[nH]c2c(=S)[nH]1 [6-Thioguanine] | – | Non Amp - AMP (POC) 10 uM [1]: 12.09 POC
15 | CCCCC[C@H](O)CC(=O)CCc1ccc(O)c(OC)c1 [6-gingerol] | −6.674 | –
16 | CCCCCCCCCCCCCC(=O)O[C@@H]1[C@@H](C)[C@@]2(O)[C@@H](C=C(CO)C[C@]3(O)C(=O)C(C)=C[C@@H]23)[C@@H]2C(C)(C)[C@]12OC(C)=O [12-O-tetradecanoyl phorbol-13-acetate] | – | Non Amp - AMP (POC) 10 uM: −2.545 POC
17 | O=C([O-])[C@@]1(CCCCCCOc2ccc(Cl)cc2)CO1.[Na+] [(R)-(+)-Etomoxir sodium salt] | 3.941 | –
18 | Cl.O=C([C@@H](Cc1cccc(C(F)(F)F)c1)NS(=O)(=O)c1cc(F)c2c(c1)CCNC2)N1CCCC1 [(R)-PFI-2 (hydrochloride)] | – | Non Amp - AMP (POC) 10 uM [1]: 19.35 POC
19 | Clc1cc2c(NC3CCCC3)nnc(-c3ccncc3)c2cc1Cl [A-196] | 2.334 | –
20 | COc1cc2c(cc1OCCCN1CCCC1)N=C(N)C21CCC1 [A-366] | – | Non Amp - AMP (POC) 10 uM [1]: 11.91 POC; Non Amp - AMP (POC) 10 uM (10 uM, 48 hrs, average relative cell viability (vs 1% DMSO) of non-amplified cells (OVSAHO, CAOV3) minus that of MYC-HSF1 amplified cells (OVCAR8, OVCAR4), positive = greater response in amplified cells, listed as A 366, 10 µM): 3.68 POC

Row | Structure (SMILES) | Non Amp - AMP (POC) 10 uM [2] [POC] | other results
21 | N#Cc1c(O)c2c(-c3ccc(-c4ccccc4O)cc3)csc2[nH]c1=O [A-769662] | −2.694 | –
22 | NC(=O)c1cccc2[nH]c(-c3ccc([C@@H]4CCCN4)cc3F)nc12 [A-966492] | 13.6 | –
23 | O=C(NCc1ccncc1)C12CC3CC(C1)CC(c1ccc(Cl)cc1)(C3)C2 [ABC294640] | 4.657 | –
24 | C[C@]1(c2nc3c(C(N)=O)cccc3[nH]2)CCCN1 [ABT-888 (Veliparib), Veliparib] | – | Non Amp - AMP (POC) 10 uM [1]: −1.058 POC
25 | O=C(CCCCCCNC(=O)c1cnc(N(c2ccccc2)c2ccccc2Cl)nc1)NO [ACY-241] | 35.17 | –
26 | N#C/C(=C/c1ccc(O)c(O)c1)C(=O)NCc1ccccc1 [AG-490] | −10.83 | –
27 | CN(C)Cc1ccc(-c2nc3cccc4c3n2CCNC4=O)cc1 [AG-14361] | 0.2059 | –
28 | N#C/C(=C\c1ccc(-c2cc(Cl)ccc2Cl)o1)C(=O)Nc1cccc2ncccc12 [AGK 2] | – | Non Amp - AMP (POC) 10 uM [1]: 24.17 POC; Non Amp - AMP (POC) 10 uM (10 uM, 48 hrs, average relative cell viability (vs 1% DMSO) of non-amplified cells (OVSAHO, CAOV3) minus that of MYC-HSF1 amplified cells (OVCAR8, OVCAR4), positive = greater response in amplified cells, listed as AGK2, 10 µM): 19.96 POC
29 | NC(=O)c1ncn([C@@H]2O[C@H](CO)[C@@H](O)[C@H]2O)c1N [AICAR] | – | Non Amp - AMP (POC) 10 uM: 11.27 POC
30 | Cc1csc(-c2nnc(Nc3ccc(Oc4ncccc4-c4ccnc(N)n4)cc3)c3ccccc23)c1 [AMG-900] | 4.126 | –
31 | O=C(Nc1ccc2c(O)cc(S(=O)(=O)O)cc2c1)Nc1ccc2c(O)cc(S(=O)(=O)O)cc2c1 [AMI-1] | – | Non Amp - AMP (POC) 10 uM [1]: 19.64 POC and 18.34 POC
32 | CC(C)[C@H](C(=O)Nc1ccc(C(=O)NO)cc1)c1ccccc1 [AR-42 (OSU-HDAC42)] | −6.14 | –
33 | O=C(Nc1c[nH]nc1-c1nc2ccc(CN3CCOCC3)cc2[nH]1)NC1CC1 [AT9283] | −1.133 | –
34 | N[C@@H]1CCCN(c2c(/C=C3\SC(=O)NC3=O)cccc2-c2ccccc2)C1 [AZD1208] | 10.38 | –
35 | Cc1cc(Nc2nc(N[C@@H](C)c3ncc(F)cn3)ncc2Cl)[nH]n1 [AZD1480] | 0.4361 | –
36 | COC1CCN(C(=O)c2cc(Cc3n[nH]c(=O)c4ccccc34)ccc2F)CC1 [AZD2461] | 9.593 | –
37 | COc1nnc2ccc(N3CCC(c4ccc(OCCN5CCN(C)C(=O)[C@H]5C)cc4)CC3)nn12 [AZD 5153] | 11.52 | –
38 | CCN(CC)Cc1cc(Nc2ccnc3cc(Cl)ccc23)ccc1O [Amodiaquine dihydrochloride dihydrate] | −0.1196 | –
39 | CCCCCCCCCCCCCCCc1cccc(O)c1C(=O)O [Anacardic acid] | – | Non Amp - AMP (POC) 10 uM [1]: 17.46 POC; Non Amp - AMP (POC) 10 uM (10 uM, 48 hrs, average relative cell viability (vs 1% DMSO) of non-amplified cells (OVSAHO, CAOV3) minus that of MYC-HSF1 amplified cells (OVCAR8, OVCAR4), positive = greater response in amplified cells, listed as Anacardic Acid, 10 µM): 5.093 POC
40 | CCC(=O)CCCCC[C@@H]1NC(=O)[C@H]2CCCCN2C(=O)[C@H]([C@@H](C)CC)NC(=O)[C@H](Cc2cn(OC)c3ccccc23)NC1=O [Apicidin] | – | Non Amp - AMP (POC) 10 uM: 45.97 POC

Row | Structure (SMILES) | Non Amp - AMP (POC) 10 uM [2] [POC] | other results
41 | CCN1CCN(C(=O)Cc2ccc(Nc3ncc(F)c(Nc4ccc(C(=O)Nc5ccccc5Cl)cc4)n3)cc2)CC1 [Aurora A Inhibitor I] | – | Non Amp - AMP (POC) 10 uM: 8.339 POC
42 | O=C(Nc1cccc(Nc2nccc(Nc3cccc(C(F)(F)F)c3)n2)c1)C1CC1 [Aurora Kinase Inhibitor III] | – | Non Amp - AMP (POC) 10 uM: −0.3226 POC
43 | Cc1cc(-c2nc(-c3ccc(OC(F)(F)F)cc3)no2)nn1Cc1ccnc(N2CCN(C3CC3)CC2)c1 [BAY 87-2243] | 11.79 | –
44 | Cn1cc(CCn2cnc(-c3cnn(C)c3)c2-c2ccc(C#N)cc2)cn1 [BAZ2-ICR] | 13.57 | –
45 | Nc1ccccc1NC(=O)c1cnccn1 [BG45] | 25.74 | –
46 | CC[C@@H]1C(=O)N(C)c2cnc(Nc3ccc(C(=O)NC4CCN(C)CC4)cc3OC)nc2N1C1CCCC1 [BI-2536] | – | Non Amp - AMP (POC) 10 uM [1]: 15.69 POC; Non Amp - AMP (POC) 10 uM (10 uM, 48 hrs, average relative cell viability (vs 1% DMSO) of non-amplified cells (OVSAHO, CAOV3) minus that of MYC-HSF1 amplified cells (OVCAR8, OVCAR4), positive = greater response in amplified cells, listed as BI 2536, 10 µM): −3.682 POC
47 | COc1cc(-c2cn(C)c(=O)c3cnccc23)cc(OC)c1CN(C)C [BI-7273] | −8.336 | –
48 | COc1cc(-c2cn(C)c(=O)c3cnccc23)c(OC)cc1CN(C)C [BI-9564] | 11 | –
49 | COc1cc2nc(N3CCCN(C)CC3)nc(NC3CCN(Cc4ccccc4)CC3)c2cc1OC [BIX 01294] | −4.372 | –
50 | Nc1ccccc1NC(=O)CCCCCCC(=O)Nc1ccccc1 [BML-210] | – | Non Amp - AMP (POC) 10 uM [1]: 30.7 POC; Non Amp - AMP (POC) 10 uM (10 uM, 48 hrs, average relative cell viability (vs 1% DMSO) of non-amplified cells (OVSAHO, CAOV3) minus that of MYC-HSF1 amplified cells (OVCAR8, OVCAR4), positive = greater response in amplified cells, listed as BML-210(CAY10433), 10 µM): 14.33 POC
51 | CCOC(=O)C1=CN(Cc2ccccc2)C=C(C(=O)OCC)C1c1ccccc1 [BML-278] | 4.191 | –
52 | Cn1ncnc1[C@H]1c2n[nH]c(=O)c3cc(F)cc(c23)N[C@@H]1c1ccc(F)cc1 [BMN 673] | −11.28 | –
53 | Cn1ncnc1C1c2n[nH]c(=O)c3cc(F)cc(c23)NC1c1ccc(F)cc1 (centres unmarked) [BMN-673 8R, 9S] | −2.489 | –
54 | Cc1ccc2nc(NCCN)c3ncc(C)n3c2c1 [BMS-345541 (free base)] | 19.27 | –
55 | CCn1c(C(=O)N(C2CC2)C2CC2)cc2c3c(ncn3C)c(Nc3cc(C)n(C)n3)nc21 [BMS-911543] | 1.85 | –
56 | O=C(NO)c1cccc(C(=O)NCCc2ccccc2)c1 [BRD73954] | 10.33 | –
57 | CCOC(=O)c1ccc(NC(=O)O[C@H]2[C@H](OC(=O)Nc3ccc4c(c3)OCO4)[C@@H](OC(=O)Nc3ccc4c(c3)OCO4)[C@@H](OC)O[C@@H]2CO)cc1 [BRD 7552] | −0.1565 | –
58 | CC1(C)C(=O)N=C2C1=C(O)C(=O)c1ccccc12 [BVT 948] | 22.87 | –
59 | CCN(CCO)CCCOc1ccc2c(Nc3cc(CC(=O)Nc4cccc(F)c4)[nH]n3)ncnc2c1 [Barasertib (AZD1152-HQPA), Barasertib] | −16.49 | –
